Experiments:
Assay type in all cases: cell-based
[1] = system: human dermal fibroblasts (HDFs); assay: UCP1 gene mRNA, comparison of four inhibitors at 4-16 μM (Example 15); details: for induction efficiency into brown adipocytes (order): compound at 4, 8, 12 or 16 μM up to Day 9, UCP1 mRNA on day 14, FIG. 15; for UCP1 gene expression (conversion to brown adipocytes): compound at 4, 8, 12 or 16 μM up to Day 9, then without compound Day 9-14, FIG. 15
Experimental: (Day −1). In the control (Ctrl) group, the culture supernatant of the next day (Day 0) was removed by suction and the cells were cultured in a normal medium up to day 14 while substituting the medium with a fresh one once every other day. In groups other than the control (Ctrl) group, the culture supernatant was removed by suction on day 0, an adipocyte induction medium or an adipocyte induction medium added with any of ALK5 inhibitor II, SB431542, LY2157299 and D4476 at a concentration of 4 μM, 8 μM, 12 μM or 16 μM respectively was added at 1 mL/well.
Thereafter, the cells were cultured in an adipocyte induction medium free of any compound of ALK5 inhibitor II, SB431542, LY215799 and D4476 during Day 9-Day 14.

[2] = system: human dermal fibroblasts (HDFs); assay: UCP1 protein immunostaining, fluorescence intensity (Example 8); details: induction medium + T3 + Rosiglitazone, D4476, SB431541, ALK5 inhibitor II, FSK 2 μM, PD0325901 1 μM, day 14, FIG. 8A-C
Experimental: (§1) The next day, the culture supernatant was removed by suction and, as described in the Figure, a normal medium, an adipocyte induction medium, or an adipocyte induction medium added with each compound and the like was added at 500 μL/well. […] The concentrations of the additives are as follows: • T3: 1 nM • Rosiglitazone: 1 μM • […]: 2 μM • SB431541: 2 μM • ALK5 inhibitor II: 2 μM • PD0325901: 1 μM • Forskolin (FSK): 2 μM. The culture medium was substituted by a fresh one every 3-4 days and the cells were cultured up to day 14. […] The cells were photographed at a magnification of 200 with a fluorescence microscope and the fluorescence intensity was measured.

[3] = system: human dermal fibroblasts (HDFs); assay: Oil Red O staining of fibroblasts cultured with compounds (Example 1); details: adipocyte induction medium with T3 1 nM and Rosiglitazone 1 μM, D4476 2 μM, SB431542 2 μM, ALK5 Inhibitor II 2 M, Pifithrin alpha 5 μM, day 14, FIG. 1
Experimental: The next day, the culture supernatant was removed by suction and, as described in the Figure, a normal medium, an adipocyte induction medium, or an adipocyte induction medium added with the compound and the like was added at 500 μL/well.
The adipocyte induction medium is a 10% FBS-added DMEM+MDI medium (10% FBS-added DMEM supplemented with 0.5 mM isobutylmethylxanthine (IBMX), 0.5 μM dexamethason and 1 μg/mL Insulin).
The concentrations of the additives are as follows: • T3: 1 nM • Rosiglitazone: 1 μM • D4476: 2 μM • Pifithrin alpha [p53 inhibitor]: 5 μM • SB431542: 2 μM • ALK5 Inhibitor II: […].
The culture medium was substituted by a fresh one every 3-4 days and the cells were cultured up to day 14.
After washing 3 times with sterile distilled water, Oil Red O staining solution was added, and the mixture was incubated at room temperature for 15 min. Then, the cells were washed with sterile distilled water and photographed at a magnification of 100 with a phase contrast microscope.

[4] = system: human dermal fibroblasts (HDFs); assay: AdipoQ gene mRNA by real time RT-PCR (Example 6); details: induction medium + T3 + Rosiglitazone, D4476, SB431542, ALK5 Inhibitor II 2 μM, PD0325901 1 μM, day 14, FIG. 6
Experimental: This was seeded in a 24-well plate at a concentration of 1×10^4 cells/well (day 0), and culturing was started at 5% CO2/95% humid air, 37° C. The next day, the culture supernatant was removed by suction and, as described in the Figure, a normal medium, an adipocyte induction medium, or an adipocyte induction medium added with each low-molecular-weight compound and the like was added at 500 μL/well. […] The concentrations of the additives are as follows: • T3: 1 nM • Rosiglitazone: 1 μM • D4476: 2 μM. • Pifithrin alpha [p53 inhibitor]: 5 μM • PD0325901: 1 μM • SB431542: 2 μM • ALK5 Inhibitor II: 2 μM. The culture medium was substituted by a fresh one every 3-4 days and the cells were cultured up to day 14.

[5] = system: human dermal fibroblasts (HDFs); assay: UCP1 protein immunostaining, comparison of four inhibitors (Example 16); details: ALK5 inhibitor II 4 μM, LY2157299 8 μM; for UCP1 protein expression by immunostaining (induction into brown adipocytes): SB431542 4 μM, D4476 4 μM up to Day 9, day 14, FIG. 16A, 16B
Experimental: Thereafter, the cells were cultured in an adipocyte induction medium free of any compound of ALK5 inhibitor II, SB431542, LY215799 and D4476 during Day 9-Day 14. On day 14, the medium was removed by suction from each well, and the cells were washed with PBS(−).

[6] = system: human dermal fibroblasts (HDFs); assay: CIDEA gene mRNA by real time RT-PCR (Example 4); details: induction medium + T3 + Rosiglitazone, compounds 2 μM, day 14, FIG. 4
Experimental: The next day, the culture supernatant was removed by suction and, as described in the Figure, a normal medium, an adipocyte induction medium, or an adipocyte induction medium added with each compound and the like was added at 500 μL/well. […] The concentrations of the additives are as follows: • T3: 1 nM • Rosiglitazone: 1 μM • D4476: 2 μM • Pifithrin alpha [p53 inhibitor]: 5 μM • SB431542: 2 μM • ALK5 Inhibitor II: 2 μM. The culture medium was substituted by a fresh one every 3 4 days and the cells were cultured up to day 14.

[7] = system: human dermal fibroblasts (HDFs); assay: BODIPY staining of lipid droplets (Example 7); details: induction medium + T3 + Rosiglitazone, compounds 2 μM, day 14, FIG. 7A, 7B
Experimental: as §1, with “each low-molecular-weight” for “each”, “II:” for “II: 2 μM • PD0325901: 1 μM • Forskolin (FSK):”

## Cc1cccc(-c2n[nH]cc2-c2ccc3ncccc3n2)n1 [ALK5 Inhibitor II, 2-(3-(6-Methylpyridin-2-yl)-1H-pyrazol-4-yl)-1,5-naphthyridine]
[1]
  induction efficiency into brown adipocytes (order): most strongly induced into brown adipocytes
  UCP1 gene expression (conversion to brown adipocytes): converted to brown adipocytes strongly expressing UCP1 gene
[2]
  UCP1 protein expression by immunostaining (conversion to brown adipocytes): converted to brown adipocytes expressing UCP1 protein
[3]
  Oil Red O staining: Remarkable Oil Red O staining
[4]
  mRNA expression of AdipoQ gene (conversion to brown adipocytes): converted to brown adipocytes expressing mRNA of AdipoQ gene
[5]
  UCP1 protein expression by immunostaining (induction into brown adipocytes): induced into brown adipocytes expressing UCP1 protein
[5]; immunostaining day 14, FIG. 16
  strength of induction of UCP1 expression (order): most strongly induced
[6]
  mRNA expression of CIDEA gene (conversion to brown adipocytes): converted to brown adipocytes expressing mRNA of CIDEA gene
[7]
  lipid droplets stained with BODIPY (conversion to brown adipocytes): converted to brown adipocytes having lipid droplets stained with BODIPY

## NC(=O)c1ccc(-c2nc(-c3ccc4c(c3)OCCO4)c(-c3ccccn3)[nH]2)cc1 [D4476, 4-[4-(2,3-dihydro-1,4-benzodioxin-6-yl)-5-(2-pyridlnyl-)1H-imidazol-2-yl]-benzamide]
[1]
  induction efficiency into brown adipocytes (order): ALK5 inhibitor II>LY2157299>SB431541>D4476
  UCP1 gene expression (conversion to brown adipocytes): converted to brown adipocytes strongly expressing UCP1 gene
[2]
  UCP1 protein expression by immunostaining (conversion to brown adipocytes): converted to brown adipocytes expressing UCP1 protein
[3]
  Oil Red O staining: Remarkable Oil Red O staining
[4]
  mRNA expression of AdipoQ gene (conversion to brown adipocytes): converted to brown adipocytes expressing mRNA of AdipoQ gene
[5]
  UCP1 protein expression by immunostaining (induction into brown adipocytes): induced into brown adipocytes expressing UCP1 protein
[6]
  mRNA expression of CIDEA gene (conversion to brown adipocytes): converted to brown adipocytes expressing mRNA of CIDEA gene
[7]
  lipid droplets stained with BODIPY (conversion to brown adipocytes): converted to brown adipocytes having lipid droplets stained with BODIPY

— US20240084258A1, “METHOD FOR PREPARING BROWN ADIPOCYTE” (KYOTO PREFECTURAL PUBLIC UNIVERSITY CORPORATION, priority 2015, published 2024)
